Source: US8815503B2, “Compositions and methods for immunostimulatory RNA oligonucleotides” (Rheinische Friedrich-Wilhelms-Universitat Bonn, priority 2005, dated 2014)

system: PBMC; test: IL-12p70 production in PBMC stimulated with complexed RNA oligonucleotides or TLR ligands, ELISA of supernatant after 24 hours; type: cell-based, human; settings: TLR ligands at optimal concentrations, RNA complexed with poly-L-arginine
Experimental: FIG. 5: PBMC from three different healthy donors were isolated and stimulated with the following stimuli (form left to right): medium, Poly I:C (10 μg/ml), LPS (1 μg/ml), 3M-001 (1 μM), 3M-007 (1 μM), R848 (5 μg/ml), 3M-002 (1 μM), CpG ODN2216 (3 μg/ml), (the following stimuli were all complexed using poly-L-arginine 88) medium, polyA ssRNA, poly U ssRNA, polyA/U dsRNA, polyc ssRNA, polyG ssRNA, poly C/G dsRNA, 9.1 sense ssRNA, 9.1antisene ssRNA, 9.1duplex dsRNA, 9.2sense ssRNA, 9.2 antisene ssRNA, 9.2duplex dsRNA, 9.3sense ssRNA, 9.3antisene ssRNA and 9.3duplex dsRNA. 24 hours after stimulation supernatants were harvested and analyzed for IL-12p70 (A) and TNF-a (B) production. Data from three individual donors were summarized and depicted as mean values ±SEM. […]

| Compound | IL-12p70 production within PBMC |
| --- | --- |
| CCCc1nc2c(N)nc3ccccc3c2s1 [3M-002] | able to induce IL-12p70 production |
| CCOCc1nc2c(N)nc3ccccc3c2n1CC(C)(C)O [R848] | able to induce IL-12p70 production |
| polyA | no activity |
| polyC | no activity |
| polyU | slight yet consistent IL-12 response |

same assay, conditions: TLR ligands at optimal concentrations, RNA complexed with poly-L-arginine, listed as poly adenosine RNA oligonucleotides

| Compound | IL-12p70 production within PBMC |
| --- | --- |
| polyA | completely inactive |

same assay, conditions: TLR ligands at optimal concentrations, RNA complexed with poly-L-arginine, listed as poly adenosine oligonucleotides

| Compound | IL-12p70 production within PBMC |
| --- | --- |
| polyA | inactive |

same assay, conditions: donor 1, complexed with poly-L-arginine of approx. 88 amino acids

| Compound | IL-12p70 production, absolute value [pg/mL] |
| --- | --- |
| 5′-AGCUUAACCUGUCCUUCAA-3′ (RNA, backbone not given here) [9.2sense, standard ssRNA oligonucleotide, positive control on all cell culture plates] | 1390 |

same assay, conditions: donor 2, complexed with poly-L-arginine of approx. 88 amino acids

| Compound | IL-12p70 production, absolute value [pg/mL] |
| --- | --- |
| 5′-AGCUUAACCUGUCCUUCAA-3′ (RNA, backbone not given here) [9.2sense, standard ssRNA oligonucleotide, positive control on all cell culture plates] | 396 |

system: PBMC; test: 193 ssRNA 4mer-motif library screen: IL-12 (IL-12p40) production in PBMC of six donors, poly-L-Arg complexation, ELISA at 44 hours, IL-12 index and adjusted IL-12 index; type: cell-based, human; parameters: key to Adjusted IL-12 index Mean: IL-12 index (ratio to 9.2sense) minus donor mean, averaged over 6 donors; settings: 193 ssRNA oligonucleotide library; data from six individual donors summarized; ascending order
How it was run: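 Human PBMC from six healthy donors were stimulated in duplicate with poly-L-arginine-complexed ssRNA oligonucleotides, and IL-12p40 in supernatant was measured by ELISA at 44 h. Each value was divided by the 9.2sense control on the same plate (IL-12 index), then the donor's mean index was subtracted; adjusted indices are means ± SEM over donors.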

| Compound | Adjusted IL-12 index Mean |
| --- | --- |
| AAAAAAAUCUUAAAAAAAA (RNA, backbone not given here) [ANP-Oligo 169] | 0.67 |
| AAAAAAAUGACAAAAAAAA (RNA, backbone not given here) [ANP-Oligo 170] | 0.86 |
| AAAAAAAUGAGAAAAAAAA (RNA, backbone not given here) [ANP-Oligo 171] | 0.22 |
| AAAAAAAUGAUAAAAAAAA (RNA, backbone not given here) [ANP-Oligo 172] | 1.92 |
| AAAAAAAUGCCAAAAAAAA (RNA, backbone not given here) [ANP-Oligo 173] | 1.22 |
| AAAAAAAUGCGAAAAAAAA (RNA, backbone not given here) [ANP-Oligo 174] | 0.28 |
| AAAAAAAUGCUAAAAAAAA (chemistry not given here) [ANP-Oligo 175] | 1.85 |
| AAAAAAAUGGCAAAAAAAA (RNA, backbone not given here) [ANP-Oligo 176] | 2.41 |
| AAAAAAAUGGGAAAAAAAA (RNA, backbone not given here) [ANP-Oligo 177] | −0.35 |
| AAAAAAAUGGUAAAAAAAA (RNA, backbone not given here) [ANP-Oligo 178] | 3.26 |
| AAAAAAAUGUCAAAAAAAA (RNA, backbone not given here) [ANP-Oligo 179] | 0.9 |
| AAAAAAAUGUGAAAAAAAA (RNA, backbone not given here) [ANP-Oligo 180] | 1.31 |
| AAAAAAAUGUUAAAAAAAA (RNA, backbone not given here) [ANP-Oligo 181] | 0.79 |
| AAAAAAAUUACAAAAAAAA (RNA, backbone not given here) [ANP-Oligo 182] | 0.11 |
| AAAAAAAUUAGAAAAAAAA (RNA, backbone not given here) [ANP-Oligo 183] | 0.27 |
| AAAAAAAUUAUAAAAAAAA (RNA, backbone not given here) [ANP-Oligo 184] | 0.56 |
| AAAAAAAUUCCAAAAAAAA (RNA, backbone not given here) [ANP-Oligo 185] | −0.08 |
| AAAAAAAUUCGAAAAAAAA (RNA, backbone not given here) [ANP-Oligo 186] | −0.08 |
| AAAAAAAUUCUAAAAAAAA (RNA, backbone not given here) [ANP-Oligo 187] | 0.18 |
| AAAAAAAUUGCAAAAAAAA (RNA, backbone not given here) [ANP-Oligo 188] | 1.62 |
| AAAAAAAUUGGAAAAAAAA (RNA, backbone not given here) [ANP-Oligo 189] | 0.66 |
| AAAAAAAUUGUAAAAAAAA (RNA, backbone not given here) [ANP-Oligo 190] | 1.6 |
| AAAAAAAUUUCAAAAAAAA (RNA, backbone not given here) [ANP-Oligo 191] | 0.27 |
| AAAAAAAUUUGAAAAAAAA (RNA, backbone not given here) [ANP-Oligo 192] | 0.65 |
| AAAAAAAUUUUAAAAAAAA (RNA, backbone not given here) [ANP-Oligo 193] | 0.62 |

same assay, conditions: donor 3; IL-12 index minus mean of all IL-12 indices of the donor

| Compound | adjusted IL-12 index |
| --- | --- |
| AAAAAAAUGCUAAAAAAAA (chemistry not given here) [ANP-Oligo 175] | 1.46 |

same assay, conditions: donor 3; poly-L-Arg complexed; 44 hours

| Compound | IL-12 in supernatant, mean of the two raw values of the duplicates [pg/mL] |
| --- | --- |
| 5′-AGCUUAACCUGUCCUUCAA-3′ (RNA, backbone not given here) [9.2sense, standard ssRNA oligonucleotide, positive control on all cell culture plates] | 908 |
| AAAAAAAUGCUAAAAAAAA (chemistry not given here) [ANP-Oligo 175] | 1725 |

same assay, conditions: donor 3; ratio to RNA9.2sense

| Compound | IL-12 index |
| --- | --- |
| AAAAAAAUGCUAAAAAAAA (chemistry not given here) [ANP-Oligo 175] | 1.90 |

same assay, conditions: summarized from all six donors

| Compound | adjusted IL-12 index |
| --- | --- |
| AAAAAAAUGGUAAAAAAAA (RNA, backbone not given here) [ANP-Oligo 178] | 3.26 |
| AAAAAAAUUGUAAAAAAAA (RNA, backbone not given here) [ANP-Oligo 190] | 1.6 |
